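1) Cells in 96-well plates. 2) Compound, 48 h, 5 concentrations. 3) Linear interpolation between surrounding doses. 4) Unreached endpoint = highest concentration. At the GI50, growth is halved.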 Activity calls are given as the source filed them. Cut-off read from the data, not from the text of the source: active = GI50 up to about 1.1 µM and inactive = higher.

This is an account of results in ChEMBL document CHEMBL1201862, “PubChem BioAssay data set” (2004).

Experiment in all cases: NCI anticancer screen, dose series, 48 h
Test [1] relates to SK-MEL-28.
The test system of test [2] is UO-31.
For test [3], the system named is UACC-257.
In test [4] the test system is SNB-75.
Test [5] relates to T47D.
In test [6] the test system is OVCAR-8.
Test [7] concerns SF-295.
In test [8] the test system is HCT-15.
In test [9] the test system is COLO 205.
In test [10] the test system is Malme-3M.
For test [11], the system named is DU-145.
Test [12] concerns LOX IMVI.
Test [13] deals with NCI-H226.
For test [14], the system named is Hs-578T.
Test [15] concerns SNB-19.
The test system of test [16] is OVCAR-4.
Test [17] relates to SF-268.
The subject of test [18] is U-251.
Test [19] deals with SN12C.
Test [20] concerns MOLT-4.

For the compound `O=S(=O)(c1ccc2ccccc2c1)N1CCN(S(=O)(=O)c2ccc3ccccc3c2)CC1`, the GI50 in test [1] was > 100 µM (inactive); in test [2] it was > 100 µM (inactive); in test [3] it was > 100 µM (inactive); in [4], 18.9 µM (inactive); in [5], > 100 µM (inactive); in test [6], 93.1 µM (inactive). The GI50 was > 100 µM (inactive) in [7]; > 100 µM in test [8]; > 100 µM (inactive) in [9]; > 100 µM (inactive) in [10]; > 100 µM (inactive) in test [11]; > 100 µM (inactive) in test [12]. Besides, the GI50 in test [13] was > 100 µM (inactive); in test [14], 31 µM (inactive); in [15], 69.7 µM (inactive); in test [16], > 100 µM (inactive); in test [17], > 100 µM (inactive); in test [18] it was > 100 µM (inactive). For the same compound, the GI50 in test [19] is > 100 µM (inactive).

As for `COc1cc(C2c3cc4c(cc3OC(N3CCOCC3)C2C)OCO4)cc(OC)c1OC(C)=O` (centres undefined), the GI50 in test [1] was > 42.1 µM (inactive); in test [2], 28.4 µM (inactive); in test [3], 53.8 µM (inactive); in [4] it was 3.74 µM (inactive); in test [5] it was 17.4 µM (inactive); in test [6], 26 µM (inactive). Further, the GI50 was 4.15 µM (inactive) in test [7]; 15 µM in test [8]; 19.3 µM (inactive) in test [9]; 5.9 µM (inactive) in test [10]; 26.5 µM (inactive) in test [11]; 23.6 µM (inactive) in test [12]. Besides, the GI50 is 17.7 µM (inactive) in [13]; 2.2 µM (inactive) in test [14]; 15.5 µM (inactive) in [15]; 57.3 µM (inactive) in test [16]; 13 µM (inactive) in test [20]; 39.3 µM (inactive) in test [17]. Further, the GI50 in test [18] is 14.3 µM (inactive); in test [19] it was 17.7 µM (inactive).

Turning to `Nc1nc(N)c2ncn(-c3ccc(Br)cc3)c2n1`, the GI50 in test [1] is > 43.3 µM (inactive); in test [2], 13.5 µM (inactive); in test [3] it was > 100 µM (inactive); in test [4], 6.97 µM (inactive); in test [5] it was 29.4 µM (inactive); in test [6], 14.6 µM (inactive). In addition, the GI50 is 34.4 µM (inactive) in [7]; 19.9 µM in [8]; > 50.5 µM (inactive) in test [9]; 10.6 µM (inactive) in [10]; 24.5 µM (inactive) in test [11]; 27 µM (inactive) in [12]. The GI50 is 40.6 µM (inactive) in test [13]; 4.12 µM (inactive) in test [14]; > 59.4 µM (inactive) in test [15]; > 38.3 µM (inactive) in test [16]; 11.6 µM (inactive) in test [20]; 15.4 µM (inactive) in [17]. In addition, the values for the GI50 in [18] and in test [19] were 24.9 µM (inactive) and 16.9 µM (inactive), respectively.

As to `Cc1nc2ccc(Cl)cc2c2c1CCN2c1ccc(F)cc1`, the GI50 was 20 µM (inactive) in test [1]; 5.4 µM (inactive) in [2]; 14.3 µM (inactive) in test [3]; 0.0266 µM (active) in test [4]; 36.1 µM (inactive) in test [5]; 22.5 µM (inactive) in [6]. In addition, the GI50 in test [7] was 82.8 µM (inactive); in test [8] it was 36 µM; in test [9] it was 9.95 µM (inactive); in test [10], 24.8 µM (inactive); in [11] it was 58.3 µM (inactive); in test [12] it was 8.73 µM (inactive). Moreover, the GI50 in test [13] was 16.2 µM (inactive); in test [14] it was 26.3 µM (inactive); in test [15], 33.1 µM (inactive); in test [16], 5.9 µM (inactive); in test [20], 4.72 µM (inactive); in test [17], 58.3 µM (inactive). Further, the GI50 in test [18] is 45.8 µM (inactive); in test [19], 26.5 µM (inactive).

`CCOc1cc(/C=N/c2nc3cc4sc(/N=C/c5ccc(O)c(OCC)c5)nc4cc3s2)ccc1O`: the GI50 in [1] was 21.3 µM (inactive); in [2] it was > 100 µM (inactive); in test [3], > 100 µM (inactive); in test [4], > 100 µM (inactive); in [5], > 100 µM (inactive); in test [6] it was > 100 µM (inactive). In addition, the GI50 in test [7] is > 100 µM (inactive); in [8], > 100 µM; in test [9] it was 24.7 µM (inactive); in [10], > 100 µM (inactive); in test [11] it was > 100 µM (inactive); in test [12] it was 55.8 µM (inactive). In addition, the GI50 is 25.8 µM (inactive) in test [13]; > 100 µM (inactive) in [14]; > 100 µM (inactive) in test [15]; > 100 µM (inactive) in test [16]; 30.8 µM (inactive) in [20]; > 100 µM (inactive) in [17]. The figures for the GI50 in test [18] and in [19] were > 100 µM (inactive) and 76.7 µM (inactive), respectively.

`O=C1C=CC(=O)c2c1ccc1c3ccccc3n(-c3cccc([N+](=O)[O-])c3)c21`: the GI50 in test [1] is 2.84 µM (inactive); in test [2] it was 2.4 µM (inactive); in test [3], 2.62 µM (inactive); in [4], > 10 µM (inactive); in test [5] it was 2.38 µM (inactive); in test [6] it was 2.83 µM (inactive). For the same compound, the GI50 in [7] was > 10 µM (inactive); in test [8], 2.59 µM; in test [9], 1.42 µM (inactive); in test [10] it was 1.98 µM (inactive); in test [11], > 10 µM (inactive); in [12], > 10 µM (inactive). The GI50 in [13] was > 10 µM (inactive); in test [14] it was 3.76 µM (inactive); in test [15], > 10 µM (inactive); in test [16], 2.81 µM (inactive); in test [20], 0.355 µM (active); in test [17], 5.66 µM (inactive). Besides, the GI50 in test [18] is 9.71 µM (inactive); in [19], 3.96 µM (inactive).

On to `COC(=O)/C=C1/OC(c2ccc(OC)cc2)=C(Cl)C1=O`, for which the GI50 is 17.3 µM (inactive) in [1]; 21 µM (inactive) in test [2]; 21.6 µM (inactive) in [3]; 17.9 µM (inactive) in test [4]; 15.3 µM (inactive) in [5]; 12.9 µM (inactive) in test [6]. Further, the GI50 was 19.9 µM (inactive) in [7]; 17.5 µM in test [8]; 9.91 µM (inactive) in test [9]; 16.2 µM (inactive) in test [10]; 18.2 µM (inactive) in test [11]; 7.94 µM (inactive) in test [12]. Also, the GI50 in [13] was 21.9 µM (inactive); in [14], 25.8 µM (inactive); in [15] it was 23 µM (inactive); in test [16], 16.3 µM (inactive); in [20] it was 2.96 µM (inactive); in test [17], 16.6 µM (inactive). For the same compound, the GI50 in test [18] was 9.1 µM (inactive); in test [19] it was 18.9 µM (inactive).

On to `OCCCNCC(O)c1ccc(OCc2ccccc2)c(OCc2ccccc2)c1` (centres undefined), for which the GI50 in test [1] is 8.95 µM (inactive); in [2] it was 15 µM (inactive); in [3], 11.2 µM (inactive); in test [4] it was 6.12 µM (inactive); in [5] it was 15.6 µM (inactive); in test [6], 11.4 µM (inactive). The GI50 in test [7] is 10.4 µM (inactive); in [8], 13.1 µM; in test [9], 4.76 µM (inactive); in test [10], 15.8 µM (inactive); in test [11], 16.9 µM (inactive); in test [12], 6.35 µM (inactive). Further, the GI50 in test [13] was 12.4 µM (inactive); in test [14], 13.6 µM (inactive); in test [15] it was 17.3 µM (inactive); in test [16], 7.41 µM (inactive); in [20], 8.3 µM (inactive); in test [17], 15.3 µM (inactive). The GI50 is 9.75 µM (inactive) in test [18] and 15.3 µM (inactive) in test [19].

Consider `CC(NC(=O)N(C)C)NC(=O)N(C)C`, for which the GI50 in [1], in test [2], in test [3], in test [4], in test [5] and in test [6] was > 10 µM (inactive) throughout. For the same compound, the GI50 in [7] is > 10 µM (inactive); in test [8], > 10 µM; in [9] it was > 10 µM (inactive); in [10], > 10 µM (inactive); in [11] it was > 10 µM (inactive); in [12], > 10 µM (inactive). Also, the GI50 in test [13], in test [14], in test [15], in [16], in test [20] and in test [17] was > 10 µM (inactive) in each case. Also, the GI50 in [18] and in test [19] was > 10 µM (inactive) in each case.

Consider `CCOC(=O)c1c2c(n3ccccc13)C(=O)c1ccccc1C2=O`, for which the GI50 is > 100 µM (inactive) in test [1]; > 100 µM (inactive) in [2]; > 100 µM (inactive) in [3]; 19.5 µM (inactive) in [4]; > 100 µM (inactive) in [5]; > 100 µM (inactive) in test [6]. Also, the GI50 in test [7] is > 100 µM (inactive); in test [8] it was 11.1 µM; in test [9], 26.5 µM (inactive); in test [10], 7.91 µM (inactive); in test [11], > 100 µM (inactive); in test [12] it was > 100 µM (inactive). The GI50 in [13] was > 100 µM (inactive); in [14] it was 19.7 µM (inactive); in test [15], 80 µM (inactive); in test [16] it was > 100 µM (inactive); in test [20] it was > 100 µM (inactive); in test [17] it was 31.3 µM (inactive). Further, the GI50 is 54.5 µM (inactive) in [18] and > 100 µM (inactive) in [19].
